Data as given in the supplement of paper PMC8617591.

What was measured:
[1] = test system: Mycobacterium tuberculosis Erdman (autoluminescent); assay: total FIC50 (Loewe) at 50% inhibition, three-drug combination (log2); higher = more antagonistic
Protocol: (§1)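 DiaMOND equipotent three-drug combination dose responses (10 doses, 1.5- or 2-fold spacing, centred on IC90) against autoluminescent M. tuberculosis Erdman in 8 in vitro models. Read-out is OD600, or luminescence for the intracellular and dormancy models, normalised to untreated wells. Hill-fit Einf, AUC25 and GRinf are potency metrics; FIC50 and FIC90 are total Loewe fractional inhibitory concentrations as log2 (negative = synergy).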

[2] = test system: Mycobacterium tuberculosis Erdman (autoluminescent); assay: total FIC90 (Loewe) at 90% inhibition, three-drug combination (log2); higher = more antagonistic
Protocol: as §1

[3] = test system: Mycobacterium tuberculosis Erdman (autoluminescent); assay: Einf, fitted maximum growth inhibition of three-drug combination (fraction); higher = stronger maximal inhibition
Protocol: as §1

[4] = test system: Mycobacterium tuberculosis Erdman (autoluminescent); assay: AUC25, normalised area under dose response up to IC25 (three-drug combination) (fraction (0-1)); higher = more potent at low dose
Protocol: as §1

[5] = test system: Mycobacterium tuberculosis Erdman (autoluminescent); assay: GRinf, maximum normalised growth rate inhibition (three-drug combination) (unitless (-1 to 1)); higher = less effect (negative = killing)
Protocol: as §1

COc1nc2ccc(Br)cc2cc1[C@@H](c1ccccc1)[C@@](O)(CCN(C)C)c1cccc2ccccc12 [bedaquiline] + CC(=O)NC[C@H]1CN(c2ccc(N3CCOCC3)c(F)c2)C(=O)O1 [linezolid] + CO[C@H]1/C=C/O[C@@]2(C)Oc3c(C)c(O)c4c(O)c(c(/C=N/N5CCN(C6CCCC6)CC5)c(O)c4c3C2=O)NC(=O)/C(C)=C\C=C\[C@H](C)[C@H](O)[C@@H](C)[C@@H](O)[C@@H](C)[C@H](OC(C)=O)[C@@H]1C [rifapentine]
Details | AUC25, [4] | Einf, [3] | GRinf, [5] | total FIC50, [1] | total FIC90, [2]
in vitro model: acidic pH 5.7, time point: constant (~7 days, model-specific) | 0.108 | 0.926 | -0.244 | 0.654 | –
in vitro model: acidic pH 5.7, time point: terminal (~4-5 doublings, model-specific) | 0.0848 | 0.986 | -0.26 | 0.615 | 0.662
in vitro model: intracellular J774, time point: constant = terminal | – | 0.933 | -0.098 | – | -0.0532

Details | AUC25, [4] | Einf, [3] | GRinf, [5] | total FIC50, [1] | total FIC90, [2]
in vitro model: butyrate, time point: constant (~7 days, model-specific) | 0.0812 | 0.921 | -0.0254 | 0.437 | -0.119
in vitro model: butyrate, time point: terminal (~4-5 doublings, model-specific) | 0.0511 | 0.948 | -0.00583 | 0.274 | -0.145
in vitro model: cholesterol 0.05 mM, time point: constant (~7 days, model-specific) | 0.127 | 0.761 | -0.281 | -0.0889 | –
in vitro model: cholesterol 0.05 mM, time point: terminal (~4-5 doublings, model-specific) | 0.121 | 0.93 | -0.354 | 0.0726 | 0.0812
in vitro model: cholesterol-high 0.2 mM, time point: constant (~7 days, model-specific) | 0.0873 | 0.998 | -0.89 | 0.58 | 1.04
in vitro model: cholesterol-high 0.2 mM, time point: terminal (~4-5 doublings, model-specific) | 0.1 | 1 | -0.637 | 0.404 | 0.653
in vitro model: dormancy (butyrate + nitrate, low O2), time point: constant (~7 days, model-specific) | 0.0901 | 0.933 | 0.0917 | 0.915 | 1.57
in vitro model: dormancy (butyrate + nitrate, low O2), time point: terminal (~4-5 doublings, model-specific) | 0.0384 | 0.985 | -0.095 | 0.965 | 0.698
in vitro model: standard 7H9 glycerol, time point: constant = terminal | 0.0734 | 0.939 | -0.014 | 0.253 | 0.00862
in vitro model: valerate, time point: constant (~7 days, model-specific) | 0.0755 | 0.899 | -0.197 | 0.659 | –
in vitro model: valerate, time point: terminal (~4-5 doublings, model-specific) | 0.0423 | 0.945 | -0.0248 | 0.581 | 0.338

COc1nc2ccc(Br)cc2cc1[C@@H](c1ccccc1)[C@@](O)(CCN(C)C)c1cccc2ccccc12 [bedaquiline] + CC(=O)NC[C@H]1CN(c2ccc(N3CCOCC3)c(F)c2)C(=O)O1 [linezolid] + CO[C@H]1/C=C/O[C@@]2(C)Oc3c(C)c(O)c4c(O)c(c(/C=N/N5CCN(C)CC5)c(O)c4c3C2=O)NC(=O)/C(C)=C\C=C\[C@H](C)[C@H](O)[C@@H](C)[C@@H](O)[C@@H](C)[C@H](OC(C)=O)[C@@H]1C [rifampicin]
Details | AUC25, [4] | Einf, [3] | GRinf, [5] | total FIC50, [1] | total FIC90, [2]
in vitro model: acidic pH 5.7, time point: constant (~7 days, model-specific) | 0.0983 | 0.934 | -0.257 | 0.731 | –
in vitro model: acidic pH 5.7, time point: terminal (~4-5 doublings, model-specific) | 0.0798 | 0.99 | -0.249 | 0.737 | 0.559
in vitro model: intracellular J774, time point: constant = terminal | – | 0.93 | -0.121 | – | -0.0392

Details | AUC25, [4] | Einf, [3] | GRinf, [5] | total FIC50, [1] | total FIC90, [2]
in vitro model: butyrate, time point: constant (~7 days, model-specific) | 0.0847 | 0.914 | -0.0141 | 0.177 | -0.362
in vitro model: butyrate, time point: terminal (~4-5 doublings, model-specific) | 0.0706 | 0.955 | -0.0153 | 0.082 | -0.195
in vitro model: cholesterol 0.05 mM, time point: constant (~7 days, model-specific) | 0.149 | 0.744 | -0.202 | -0.0465 | –
in vitro model: cholesterol 0.05 mM, time point: terminal (~4-5 doublings, model-specific) | 0.135 | 0.937 | -0.321 | 4.18 | -0.205
in vitro model: cholesterol-high 0.2 mM, time point: constant (~7 days, model-specific) | 0.095 | 0.988 | -0.655 | 0.47 | 0.612
in vitro model: cholesterol-high 0.2 mM, time point: terminal (~4-5 doublings, model-specific) | 0.0921 | 1 | -0.646 | 0.65 | 0.504
in vitro model: dormancy (butyrate + nitrate, low O2), time point: constant (~7 days, model-specific) | 0.0823 | 0.941 | 0.177 | 0.618 | 0.781
in vitro model: dormancy (butyrate + nitrate, low O2), time point: terminal (~4-5 doublings, model-specific) | 0.0706 | 0.982 | -0.387 | 0.272 | 0.748
in vitro model: standard 7H9 glycerol, time point: constant = terminal | 0.0714 | 0.938 | -0.0288 | 0.312 | -0.401
in vitro model: valerate, time point: constant (~7 days, model-specific) | 0.0495 | 0.895 | 0.063 | 0.886 | –
in vitro model: valerate, time point: terminal (~4-5 doublings, model-specific) | 0.0389 | 0.953 | -0.012 | 0.712 | 0.323

COc1nc2ccc(Br)cc2cc1[C@@H](c1ccccc1)[C@@](O)(CCN(C)C)c1cccc2ccccc12 [bedaquiline] + CC(=O)NC[C@H]1CN(c2ccc(N3CCOCC3)c(F)c2)C(=O)O1 [linezolid] + COc1c(N2C[C@@H]3CCCN[C@@H]3C2)c(F)cc2c(=O)c(C(=O)O)cn(C3CC3)c12 [moxifloxacin]
Details | AUC25, [4] | Einf, [3] | GRinf, [5] | total FIC50, [1] | total FIC90, [2]
in vitro model: acidic pH 5.7, time point: constant (~7 days, model-specific) | 0.108 | 0.833 | -0.483 | 0.265 | –
in vitro model: acidic pH 5.7, time point: terminal (~4-5 doublings, model-specific) | 0.0466 | 0.934 | -0.2 | 0.43 | -0.0182
in vitro model: intracellular J774, time point: constant = terminal | – | 0.862 | -0.242 | – | 1.32

Details | AUC25, [4] | Einf, [3] | GRinf, [5] | total FIC50, [1] | total FIC90, [2]
in vitro model: butyrate, time point: constant (~7 days, model-specific) | 0.0949 | 0.936 | -0.0894 | 0.691 | 0.695
in vitro model: butyrate, time point: terminal (~4-5 doublings, model-specific) | 0.0643 | 0.968 | -0.0714 | 0.693 | 0.691
in vitro model: cholesterol 0.05 mM, time point: constant (~7 days, model-specific) | 0.131 | 0.758 | -0.288 | 0.224 | –
in vitro model: cholesterol 0.05 mM, time point: terminal (~4-5 doublings, model-specific) | 0.144 | 0.966 | -0.449 | -0.0261 | -0.532
in vitro model: cholesterol-high 0.2 mM, time point: constant (~7 days, model-specific) | 0.11 | 0.992 | -0.761 | 0.524 | 0.835
in vitro model: cholesterol-high 0.2 mM, time point: terminal (~4-5 doublings, model-specific) | 0.108 | 1 | -0.836 | 0.657 | 1.04
in vitro model: dormancy (butyrate + nitrate, low O2), time point: constant (~7 days, model-specific) | 0.0831 | 0.921 | 0.149 | 0.916 | 0.891
in vitro model: dormancy (butyrate + nitrate, low O2), time point: terminal (~4-5 doublings, model-specific) | 0.0363 | 0.989 | -0.0826 | 1.62 | 1.09
in vitro model: standard 7H9 glycerol, time point: constant = terminal | 0.0873 | 0.971 | -0.102 | 0.152 | 0.63
in vitro model: valerate, time point: constant (~7 days, model-specific) | 0.118 | 0.902 | -0.144 | 0.407 | –
in vitro model: valerate, time point: terminal (~4-5 doublings, model-specific) | 0.0703 | 0.947 | -0.0335 | 0.697 | 0.911
